“Also recorded” adds a separate entry of the source. Non-standard residues stand in square brackets, D forms with d. Residues, ends and D or L forms follow the SMILES beside them. *: point of attachment. GlcA(β-D,1-O-dodecyl) = CCCCCCCCCCCCO[C@@H]1O[C@H](C(=O)*)[C@@H](O)[C@H](O)[C@H]1O; βGlcA(1-OMe) = CO[C@@H]1O[C@H](C(=O)*)[C@@H](O)[C@H](O)[C@H]1O; Dmt = Cc1cc(O)cc(C)c1C[C@H](N)C(=O)O; hArg = N=C(N)NCCCC[C@H](N)C(=O)O; Tic = O=C(O)[C@@H]1Cc2ccccc2CN1; Nle = CCCC[C@H](N)C(=O)O; Ac5c = NC1(C(=O)O)CCCC1; Aib = CC(C)(N)C(=O)O
Experiments:
[1] = molecular target: T1, PTH receptor (PTHR1) (Homo sapiens, UniProt Q03431); experiment: PTH1 cellular assay, antagonist mode with added PTHrP; assay type: cell-based; details: read-out: maximal effects in antagonist mode
T1 construct: Cerep SA
T1 sequence (Q03431 27-593): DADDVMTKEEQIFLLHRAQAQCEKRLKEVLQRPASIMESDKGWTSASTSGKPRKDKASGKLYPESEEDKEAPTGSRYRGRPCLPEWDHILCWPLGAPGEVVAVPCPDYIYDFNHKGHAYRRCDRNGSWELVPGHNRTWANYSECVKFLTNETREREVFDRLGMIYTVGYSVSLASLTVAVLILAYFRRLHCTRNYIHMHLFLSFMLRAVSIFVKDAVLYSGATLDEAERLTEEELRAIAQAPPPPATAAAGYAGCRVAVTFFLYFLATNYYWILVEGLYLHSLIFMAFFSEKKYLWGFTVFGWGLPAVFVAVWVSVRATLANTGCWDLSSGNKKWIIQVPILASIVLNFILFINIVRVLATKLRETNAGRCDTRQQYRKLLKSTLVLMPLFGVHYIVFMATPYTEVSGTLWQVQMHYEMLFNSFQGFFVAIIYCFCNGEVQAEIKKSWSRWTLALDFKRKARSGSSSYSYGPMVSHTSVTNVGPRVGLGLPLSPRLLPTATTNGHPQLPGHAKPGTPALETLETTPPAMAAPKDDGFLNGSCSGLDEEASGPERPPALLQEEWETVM
Procedure: Compounds were weighed precisely in an amount of approximately 1 mg and assayed in standard cellular assays (cerep SA). The readout is the amount of cAMP generated in the cells treated with the test compounds, in either agonist or antagonist mode. The PTH1 cellular assay used is described in Orloff, J. J., et al. (1992) Endocrinol 131: 1603-1611.
Modifications elsewhere in the molecule can be used to further modify the potency and character of the interaction of the drug candidates.

[2] = molecular target: T2, delta2 opioid receptor (Mus musculus, UniProt P32300); experiment: delta2 opioid receptor cellular assay (DOP), antagonist mode vs DPDPE, cAMP readout; assay type: cell-based
T2 construct: Cerep
T2 sequence (P32300 whole entry): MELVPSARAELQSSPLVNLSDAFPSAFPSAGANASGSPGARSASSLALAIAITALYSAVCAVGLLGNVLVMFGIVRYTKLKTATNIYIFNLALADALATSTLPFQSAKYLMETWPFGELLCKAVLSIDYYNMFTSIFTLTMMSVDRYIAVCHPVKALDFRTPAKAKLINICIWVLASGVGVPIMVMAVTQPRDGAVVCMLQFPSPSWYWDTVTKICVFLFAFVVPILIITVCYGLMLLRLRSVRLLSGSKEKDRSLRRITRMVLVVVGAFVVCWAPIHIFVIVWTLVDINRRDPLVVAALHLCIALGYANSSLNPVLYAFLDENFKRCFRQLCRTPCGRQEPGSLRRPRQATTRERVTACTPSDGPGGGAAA
Procedure: Compounds were weighed precisely in an amount of approximately 2 mg and assayed in standard cellular assays by the contract research organization Cerep, Inc. (Pullman, Wash.) as executed at their subsidiary, Cerep SA (Le Bois l'Eveque, France). The readout is the amount of cAMP generated in the cells treated with the test compounds, in either agonist or antagonist mode. The assays used were the mu opioid receptor cellular assay (MOP in agonist and antagonist mode), the delta2 opioid receptor cellular assay (DOP in agonist and antagonist mode) and the kappa opioid receptor cellular assay (KOP in agonist and antagonist mode). The assays used are described in Wang, J. B., et al. (1994) FEBS Lett 338: 217-222, Law, P. Y. and Loh, H. H. (1993) Mol Pharmacol 43: 684-693, and Avidor-Reiss, T., et al. (1995) FEBS Lett 361: 70-74. The stimulant for the cells in the DOR antagonist assay was 3×10E-8M DPDPE, a well-accepted DOR literature standard.

[3] = molecular target: T3, mu opioid receptor (Homo sapiens, UniProt P35372); experiment: mu opioid receptor cellular assay (MOP), agonist mode, cAMP readout (Cerep); assay type: cell-based
T3 construct: Cerep
T3 sequence (P35372 whole entry): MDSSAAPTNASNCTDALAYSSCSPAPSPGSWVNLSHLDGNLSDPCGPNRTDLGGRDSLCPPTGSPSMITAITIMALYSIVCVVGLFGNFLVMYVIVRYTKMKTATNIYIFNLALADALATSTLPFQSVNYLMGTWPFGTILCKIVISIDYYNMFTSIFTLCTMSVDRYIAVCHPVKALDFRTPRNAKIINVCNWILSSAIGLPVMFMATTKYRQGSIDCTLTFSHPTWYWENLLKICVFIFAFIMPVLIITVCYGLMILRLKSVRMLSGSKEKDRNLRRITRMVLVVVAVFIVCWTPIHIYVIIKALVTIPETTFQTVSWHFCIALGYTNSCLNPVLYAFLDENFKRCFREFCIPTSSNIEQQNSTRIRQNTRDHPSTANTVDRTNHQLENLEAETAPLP

[4] = tested on: λ-carrageenan-induced inflammatory pain; experiment: λ-carrageenan-induced inflammatory pain model, paw pressure threshold (Randall-Selitto); assay type: in vivo, rat; details: rats, i.pl., 24 h after carrageenan; beyond 30 min
Procedure: Adult male Sprague-Dawley rats were briefly anesthetized with isoflurane, and unilateral hind paw inflammatory pain was induced by injecting […] of λ-carrageenan. A λ-carrageenan injection into the left hind paw produces redness and edema. These alterations were observed within 6 h after induction of inflammation and peaked by 24 h. Further, the changes were confined to the carrageenan treated paw.
Changes in Paw Pressure Thresholds (PPT), a measurement of nociception and antinociception, was evaluated using a digital Randall-Selitto method. Briefly, animals are gently restrained and incremental pressure (maximum 350 g) was applied onto the dorsal surface of the hindpaw. The pressure required to elicit paw withdrawal, PPT, was determined. Paw-thickness, the indicator of inflammation, was measured using digital calipers. 24 h after induction of inflammation, rats received either saline, positive controls (DAMGO (8-32 μg) or fentanyl (0.4-0.8 μg)) or test peptides in 100 μl volume i.pl. The antinociception was measured at different time points (5 to 120 min or 5 hr to 24 hr) after drug administration. Baseline measures were taken before administering drug to confirm the development of inflammation and nociception.

[5] = molecular target: T4, GLP-1 R (Mus musculus, UniProt O35659); experiment: GLP-1 cellular assay, cAMP stimulation (murine cell line, Cerep); assay type: cell-based; details: n.c. = EC50 not calculable
T4 construct: GLP-1 (murine cell line) cellular assays
T4 sequence (O35659 22-463): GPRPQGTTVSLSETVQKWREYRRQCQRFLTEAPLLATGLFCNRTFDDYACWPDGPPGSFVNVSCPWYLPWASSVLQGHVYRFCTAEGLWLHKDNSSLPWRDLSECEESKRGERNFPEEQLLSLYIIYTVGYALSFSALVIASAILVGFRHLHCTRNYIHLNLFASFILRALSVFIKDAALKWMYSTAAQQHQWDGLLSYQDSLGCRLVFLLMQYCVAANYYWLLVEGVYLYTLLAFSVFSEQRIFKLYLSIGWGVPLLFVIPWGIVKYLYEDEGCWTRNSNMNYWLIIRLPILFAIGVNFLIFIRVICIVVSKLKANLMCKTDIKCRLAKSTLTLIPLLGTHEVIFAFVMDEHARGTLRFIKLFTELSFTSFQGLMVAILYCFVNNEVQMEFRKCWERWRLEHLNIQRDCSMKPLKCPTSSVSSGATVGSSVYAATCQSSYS
Procedure: Compounds were weighed precisely in an amount of approximately 1 mg and assayed in standard cellular assays (Cerep SA). The readout is the amount of cAMP generated in the cells treated with the test compounds, in either agonist or antagonist mode. […] The assays are described in Chicchi, G. G., et al. (1997) J Biol Chem 272: 7765-7769 and Runge, S., et al. (2003) Br J Pharmacol 138: 787-794.

[6] = tested on: db/db mice; experiment: db/db mice, body weight; assay type: in vivo, mouse; details: high dose (300 nmoles/kg), Days 2 and 3
Procedure: (§1) The 60 female db/db B6BKS (D) Leprdb/J (strain 000697) mice for this study were approximately 8 to 9 weeks old at arrival (Jackson Laboratory, Bar Harbor, Me.). The mice were randomized by weight and two treatment groups of 8 female mice each were administered the test articles, EU-A994, EU-A995, or EU-A1026, at dose levels of 100 or 300 nmoles/kg. One group of 8 female mice served as the vehicle control and received the vehicle, 0.2% BSA in saline, pH 7.4. One additional group of 8 female mice received the positive control article, liraglutide, at a dose level of 50 nmoles/kg. The test articles, vehicle, and positive control article were administered on Day 1, at approximately 0, 7, and 24 hours during the study via subcutaneous injection at a dose volume of 6 mL/kg.
(§2) Clinical observations were conducted at receipt, prior to randomization, and daily from Days 1 to 5. Body weights were measured and recorded at receipt, prior to randomization, and daily from Days 1 to 5. Food consumption was measured and recorded daily from Days 1 to 5. Blood samples for glucose analysis were collected pretest (Day −3) and at 0, 1, 2, 4, 8, 10, 24, 48, 72, and 96 hours following the first dose on Day 1. At study termination all animals were euthanized and the carcasses were discarded without further evaluation.

[7] = tested on: db/db mice; experiment: db/db mice, blood glucose after s.c. dosing; assay type: in vivo, mouse; details: for Mean Blood Glucose: db/db mice, s.c., 300 nmole/kg
Procedure: as §1, with “The mice were randomized by weight and two treatment groups of 8 female mice each were administered the test articles, EU-A994, EU-A995, or EU-A1026, at dose levels of 100 or 300 nmoles/kg.” left out
as §2

SMILES: CCCCCCCCCCCCO[C@@H]1O[C@H](C(=O)NCCCC[C@H](NC(=O)[C@H](CCC(N)=O)NC(=O)[C@@H](NC(=O)[C@H](Cc2ccccc2)NC(=O)[C@H](CCCNC(=N)N)NC(=O)[C@H](C)NC(=O)[C@H](CCCCNC(=N)N)NC(=O)[C@H](CCC(N)=O)NC(=O)[C@H](Cc2c[nH]cn2)NC(=O)[C@H](CCCC)NC(=O)[C@H](CC(C)C)NC(=O)[C@H](CCC(N)=O)NC(=O)[C@@H](NC(=O)[C@H](CCC(=O)O)NC(=O)C(C)(C)NC(=O)[C@@H](NC(=O)C2(N)CCCC2)C(C)C)[C@@H](C)CC)[C@@H](C)CC)C(N)=O)[C@@H](O)[C@H](O)[C@H]1O [EU-203] (H-[Ac5c]V[Aib]EIQL[Nle]HQ[hArg]ARFIQK(GlcA(β-D,1-O-dodecyl))-NH2; N-terminus assumed)
- Emax [1]: 146%

SMILES: CO[C@@H]1O[C@H](C(=O)NCCCC[C@H](NC(=O)[C@H](Cc2ccccc2)NC(=O)[C@@H]2Cc3ccccc3CN2C(=O)[C@@H](N)Cc2c(C)cc(O)cc2C)C(N)=O)[C@@H](O)[C@H](O)[C@H]1O [EU-A178, 2′,6′-dimethyl-L-tyrosyl-L-1,2,3,4-tetrahydroisoquinoline-3-carbonyl-L-phenylalanyl-Nε-(1′-methyl β-D-glucuronyl)-L-lysyl-amide] (H-[Dmt][Tic]FK(βGlcA(1-OMe))-NH2)
- Characterization (DOP) [2]: pure antagonist; also recorded: pure DOP antag
- Characterization (MOP) [3]: full agonistic behavior; also recorded: Pure MOP Ag;
- Paw Pressure Thresholds (PPT) [4]: statistically significant increases in PPT

SMILES: CCCCCCCCCCCCO[C@@H]1O[C@H](C(=O)NCCCC[C@H](NC(=O)[C@@H]2CCCCNC(=O)CC[C@H](NC(=O)[C@H](CC(=O)O)NC(=O)[C@H](CC(C)C)NC(=O)[C@H](Cc3ccc(O)cc3)NC(=O)[C@H](CCCCN)NC(=O)[C@H](CO)NC(=O)[C@H](Cc3ccc(O)cc3)NC(=O)[C@H](CC(=O)O)NC(=O)[C@H](CO)NC(=O)[C@@H](NC(=O)[C@H](Cc3ccccc3)NC(=O)[C@@H](NC(=O)CNC(=O)[C@H](CCC(N)=O)NC(=O)C(C)(C)NC(=O)[C@@H](N)Cc3c[nH]cn3)[C@@H](C)O)[C@@H](C)O)C(=O)N[C@@H](CCCNC(=N)N)C(=O)N[C@@H](C)C(=O)N[C@@H](C)C(=O)N2)C(=O)N[C@@H](Cc2ccccc2)C(=O)NC(C)(C)C(N)=O)[C@@H](O)[C@H](O)[C@H]1O [EU-A455]
- EC50 [5]: 59 nM

SMILES: CCCCCCCCCCCCCCO[C@@H]1O[C@H](C(=O)NCCCC[C@H](NC(=O)[C@@H](NC(=O)[C@H](Cc2ccccc2)NC(=O)[C@H](CCC(=O)O)NC(=O)[C@@H]2CCCCNC(=O)CC[C@H](NC(=O)[C@H](CC(=O)O)NC(=O)[C@H](CC(C)C)NC(=O)[C@H](Cc3ccc(O)cc3)NC(=O)[C@H](CCCCN)NC(=O)[C@H](CO)NC(=O)[C@H](Cc3ccc(O)cc3)NC(=O)[C@H](CC(=O)O)NC(=O)[C@H](CO)NC(=O)[C@@H](NC(=O)[C@H](Cc3ccccc3)NC(=O)[C@@H](NC(=O)CNC(=O)[C@H](CCC(N)=O)NC(=O)C(C)(C)NC(=O)[C@@H](N)Cc3c[nH]cn3)[C@@H](C)O)[C@@H](C)O)C(=O)N[C@@H](CCC(N)=O)C(=O)N[C@@H](C)C(=O)N[C@@H](C)C(=O)N2)[C@@H](C)CC)C(=O)N[C@@H](Cc2c[nH]c3ccccc23)C(=O)N[C@@H](CC(C)C)C(=O)N[C@@H](CC(C)C)C(=O)N[C@@H](CCC(N)=O)C(=O)N[C@H](C(N)=O)[C@@H](C)O)[C@@H](O)[C@H](O)[C@H]1O [EU-A994]
- body weight changes against vehicle [6]: Significant body weight changes
- Mean Blood Glucose ([7]; 0 hr): 554 mg/dL
- Mean Blood Glucose ([7]; 10 hr): 242 mg/dL
- Mean Blood Glucose ([7]; 24 hr): 209 mg/dL
- Mean Blood Glucose ([7]; 48 hr): 385 mg/dL
- Glucose levels vs vehicle ([7]; high dose (300 nmoles/kg), at 10 and 24 hours): significantly different from vehicle
